Reference: PubChem BioAssay (NCI)
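Step 1: Grow cells in 96-well plates. Step 2: Expose to compound for 48 hours at 5 concentrations. Step 3: Interpolate endpoints linearly; if unreached, use highest concentration. TGI marks complete inhibition of growth.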

How the values were obtained:
Assay in all cases: NCI-60 cell line screen, 48 h
SK-MEL-5 melanoma = test system: SK-MEL-5 melanoma
HCT-15 colon = test system: HCT-15 colon
HOP-62 NSCLC = test system: HOP-62 NSCLC
SN12C renal = test system: SN12C renal
SF-295 CNS = test system: SF-295 CNS
DU-145 prostate = test system: DU-145 prostate
PC-3 prostate = test system: PC-3 prostate
A549 NSCLC = test system: A549 NSCLC
NCI/ADR-RES ovarian = test system: NCI/ADR-RES ovarian
K-562 leukemia = test system: K-562 leukemia
MDA-N = test system: MDA-N
HCC-2998 colon = test system: HCC-2998 colon
M14 melanoma = test system: M14 melanoma
MCF7 breast = test system: MCF7 breast
T-47D breast = test system: T-47D breast

CN1CC[C@@]2(c3cccc(O)c3)CC(=O)/C(=C/c3ccc(Cl)c(Cl)c3)[C@H]1C2
TGI (SK-MEL-5 melanoma): 5.53 µM
TGI (HCT-15 colon): 3.77 µM
TGI (HOP-62 NSCLC): 6.2 µM
TGI (SN12C renal): 3.89 µM
TGI (SF-295 CNS): 3.86 µM
TGI (DU-145 prostate): 16.4 µM
TGI (PC-3 prostate): 3.07 µM
TGI (A549 NSCLC): 11.5 µM
TGI (NCI/ADR-RES ovarian): 7.09 µM
TGI (K-562 leukemia): 3.66 µM
TGI (MDA-N): 3.77 µM
TGI (HCC-2998 colon): 3.37 µM
TGI (M14 melanoma): 5.02 µM

CC(C)(C)C1CC[C@H](O)[C@H]([C@@H](O)CC2CC(=O)N(c3ccccc3)C(=O)C2)C1 (some centres undefined)
TGI (SK-MEL-5 melanoma): > 100 µM
TGI (HCT-15 colon): > 100 µM
TGI (HOP-62 NSCLC): > 100 µM
TGI (SN12C renal): > 100 µM
TGI (SF-295 CNS): > 100 µM
TGI (DU-145 prostate): > 100 µM
TGI (PC-3 prostate): > 100 µM
TGI (A549 NSCLC): > 100 µM
TGI (MCF7 breast): > 100 µM
TGI (NCI/ADR-RES ovarian): > 100 µM
TGI (K-562 leukemia): > 100 µM
TGI (MDA-N): > 100 µM
TGI (HCC-2998 colon): > 100 µM
TGI (M14 melanoma): > 100 µM

COc1ccccc1NC(=S)Nc1ccccn1
TGI (SK-MEL-5 melanoma): > 100 µM
TGI (HCT-15 colon): > 100 µM
TGI (HOP-62 NSCLC): > 100 µM
TGI (SF-295 CNS): > 100 µM
TGI (PC-3 prostate): > 100 µM
TGI (A549 NSCLC): > 100 µM
TGI (MCF7 breast): > 100 µM
TGI (NCI/ADR-RES ovarian): > 100 µM
TGI (K-562 leukemia): > 100 µM
TGI (M14 melanoma): > 100 µM

Cc1nsc2cc(Cl)n(C)c(=O)c12
TGI (SK-MEL-5 melanoma): > 100 µM
TGI (HCT-15 colon): > 100 µM
TGI (HOP-62 NSCLC): > 100 µM
TGI (SN12C renal): > 100 µM
TGI (A549 NSCLC): > 100 µM
TGI (K-562 leukemia): > 100 µM
TGI (HCC-2998 colon): > 100 µM
TGI (M14 melanoma): > 100 µM

c1ccc(Nc2nnc(-c3ccccc3Nc3ccccc3-c3nnc(Nc4ccccc4)s3)s2)cc1
TGI (SK-MEL-5 melanoma): > 100 µM
TGI (HCT-15 colon): > 100 µM
TGI (HOP-62 NSCLC): > 100 µM
TGI (SF-295 CNS): > 100 µM
TGI (DU-145 prostate): > 100 µM
TGI (PC-3 prostate): > 100 µM
TGI (MCF7 breast): > 100 µM
TGI (NCI/ADR-RES ovarian): > 100 µM
TGI (K-562 leukemia): > 100 µM
TGI (MDA-N): > 100 µM
TGI (HCC-2998 colon): > 100 µM
TGI (M14 melanoma): > 100 µM

CC(=O)O[C@H]1[C@@H](N2CCCCC2)C[C@H]2[C@@H]3CC=C4C[C@@H](N5CCCC5)CC[C@]4(C)[C@H]3CC[C@@]21C
TGI (SK-MEL-5 melanoma): > 100 µM
TGI (HCT-15 colon): > 100 µM
TGI (HOP-62 NSCLC): > 100 µM
TGI (T-47D breast): > 100 µM
TGI (SN12C renal): > 100 µM
TGI (SF-295 CNS): > 100 µM
TGI (PC-3 prostate): > 100 µM
TGI (A549 NSCLC): > 100 µM
TGI (MCF7 breast): > 100 µM
TGI (NCI/ADR-RES ovarian): > 100 µM
TGI (K-562 leukemia): 22.5 µM
TGI (HCC-2998 colon): 34.4 µM
TGI (M14 melanoma): 36.4 µM

N=c1oc2ccccc2cc1C(=O)Nc1ccccn1
TGI (SK-MEL-5 melanoma): > 100 µM
TGI (HCT-15 colon): > 100 µM
TGI (HOP-62 NSCLC): > 100 µM
TGI (T-47D breast): > 100 µM
TGI (SN12C renal): > 100 µM
TGI (DU-145 prostate): > 100 µM
TGI (A549 NSCLC): > 100 µM
TGI (NCI/ADR-RES ovarian): > 100 µM
TGI (K-562 leukemia): > 100 µM
TGI (MDA-N): > 100 µM
TGI (HCC-2998 colon): > 100 µM
TGI (M14 melanoma): > 100 µM

COc1cc(Br)c(/C=N/N=C(\N)NO)cc1OC
TGI (SK-MEL-5 melanoma): 21.2 µM
TGI (HCT-15 colon): > 100 µM
TGI (HOP-62 NSCLC): 70.3 µM
TGI (SN12C renal): 83.2 µM
TGI (SF-295 CNS): > 100 µM
TGI (A549 NSCLC): 50.2 µM
TGI (K-562 leukemia): 47.3 µM
TGI (HCC-2998 colon): 26.3 µM
TGI (M14 melanoma): 34.7 µM

CSCCCNC(=O)c1csc(-c2csc(CCNC(=O)CNC(=O)OC(C)(C)C)n2)n1
TGI (SK-MEL-5 melanoma): > 100 µM
TGI (HCT-15 colon): > 100 µM
TGI (HOP-62 NSCLC): > 100 µM
TGI (SN12C renal): > 100 µM
TGI (SF-295 CNS): > 100 µM
TGI (DU-145 prostate): > 100 µM
TGI (PC-3 prostate): > 100 µM
TGI (A549 NSCLC): > 100 µM
TGI (MCF7 breast): > 100 µM
TGI (NCI/ADR-RES ovarian): > 100 µM
TGI (K-562 leukemia): > 100 µM
TGI (MDA-N): > 100 µM
TGI (HCC-2998 colon): > 100 µM
TGI (M14 melanoma): > 100 µM

COc1cc(Br)c(C=Nc2cccc3ccc(OS(=O)(=O)c4ccc([N+](=O)[O-])cc4)cc23)cc1OC
TGI (SK-MEL-5 melanoma): > 100 µM
TGI (HCT-15 colon): > 100 µM
TGI (HOP-62 NSCLC): > 100 µM
TGI (SN12C renal): > 100 µM
TGI (SF-295 CNS): > 100 µM
TGI (A549 NSCLC): > 100 µM
TGI (HCC-2998 colon): > 100 µM

CCOc1ccc(NC(=O)/C=C/c2ccco2)cc1
TGI (SK-MEL-5 melanoma): > 100 µM
TGI (HCT-15 colon): > 100 µM
TGI (SN12C renal): > 100 µM
TGI (SF-295 CNS): > 100 µM
TGI (DU-145 prostate): > 100 µM
TGI (PC-3 prostate): > 100 µM
TGI (A549 NSCLC): > 100 µM
TGI (MCF7 breast): > 100 µM
TGI (NCI/ADR-RES ovarian): > 100 µM
TGI (K-562 leukemia): > 100 µM
TGI (MDA-N): > 100 µM
TGI (HCC-2998 colon): > 100 µM
TGI (M14 melanoma): > 100 µM

COC(=O)C(C(=O)C(=O)Nc1nc2ccc(OC)cc2s1)c1cnc2ccccc2n1 (centres undefined)
TGI (SK-MEL-5 melanoma): > 100 µM
TGI (HCT-15 colon): > 100 µM
TGI (HOP-62 NSCLC): > 100 µM
TGI (SN12C renal): > 100 µM
TGI (SF-295 CNS): > 100 µM
TGI (A549 NSCLC): > 100 µM
TGI (K-562 leukemia): > 100 µM
TGI (HCC-2998 colon): > 100 µM
TGI (M14 melanoma): > 100 µM

O=C1CSc2ccnc(=O)n21
TGI (SK-MEL-5 melanoma): > 100 µM
TGI (HOP-62 NSCLC): > 100 µM
TGI (SN12C renal): > 100 µM
TGI (DU-145 prostate): > 100 µM
TGI (PC-3 prostate): > 100 µM
TGI (A549 NSCLC): > 100 µM
TGI (MCF7 breast): > 100 µM
TGI (MDA-N): > 100 µM
TGI (HCC-2998 colon): > 100 µM
TGI (M14 melanoma): > 100 µM

CC[n+]1c(/C=C/c2cc(C(=O)OC)n3c2sc2ccccc23)sc2ccccc21
TGI (SK-MEL-5 melanoma): 28.9 µM
TGI (HCT-15 colon): 34.9 µM
TGI (HOP-62 NSCLC): 34.8 µM
TGI (SN12C renal): 49.3 µM
TGI (A549 NSCLC): 38.3 µM
TGI (K-562 leukemia): 31.2 µM
TGI (HCC-2998 colon): 27.8 µM
TGI (M14 melanoma): 34.9 µM

O=C1NCC2(CCN(CC3COc4ccccc4O3)CC2)N1c1ccccc1 (centres undefined)
TGI (SK-MEL-5 melanoma): > 100 µM
TGI (HCT-15 colon): > 100 µM
TGI (HOP-62 NSCLC): > 100 µM
TGI (T-47D breast): > 100 µM
TGI (SN12C renal): > 100 µM
TGI (SF-295 CNS): > 100 µM
TGI (DU-145 prostate): > 100 µM
TGI (PC-3 prostate): > 100 µM
TGI (A549 NSCLC): > 100 µM
TGI (MCF7 breast): > 100 µM
TGI (NCI/ADR-RES ovarian): > 100 µM
TGI (K-562 leukemia): > 100 µM
TGI (HCC-2998 colon): > 100 µM
TGI (M14 melanoma): > 100 µM

C#CCNC(CCCN=C(N)N)C(=O)O (centres undefined)
TGI (SK-MEL-5 melanoma): > 100 µM
TGI (HCT-15 colon): > 100 µM
TGI (HOP-62 NSCLC): > 100 µM
TGI (T-47D breast): > 100 µM
TGI (SF-295 CNS): > 100 µM
TGI (DU-145 prostate): > 100 µM
TGI (PC-3 prostate): > 100 µM
TGI (A549 NSCLC): > 100 µM
TGI (NCI/ADR-RES ovarian): > 100 µM
TGI (K-562 leukemia): > 100 µM
TGI (HCC-2998 colon): > 100 µM
TGI (M14 melanoma): > 100 µM

Nc1ccc(C(=O)NN2C(=O)C(Cl)C2c2ccc(O)cc2)cc1 (centres undefined)
TGI (SK-MEL-5 melanoma): 31 µM
TGI (HCT-15 colon): 50.1 µM
TGI (HOP-62 NSCLC): 38.4 µM
TGI (SN12C renal): 36.6 µM
TGI (SF-295 CNS): > 100 µM
TGI (A549 NSCLC): > 100 µM
TGI (K-562 leukemia): 49.5 µM
TGI (M14 melanoma): 31.4 µM

CCc1cccc(CC)c1Nc1nc(-c2ccccc2-c2ccccc2)cs1
TGI (SK-MEL-5 melanoma): > 100 µM
TGI (HCT-15 colon): > 100 µM
TGI (HOP-62 NSCLC): > 100 µM
TGI (T-47D breast): > 100 µM
TGI (SN12C renal): > 100 µM
TGI (SF-295 CNS): > 100 µM
TGI (DU-145 prostate): > 100 µM
TGI (PC-3 prostate): > 100 µM
TGI (A549 NSCLC): > 100 µM
TGI (MCF7 breast): > 100 µM
TGI (K-562 leukemia): > 100 µM
TGI (MDA-N): > 100 µM
TGI (HCC-2998 colon): > 100 µM
TGI (M14 melanoma): > 100 µM

O=C(CC(=O)n1nc(-c2ccccc2)c(N=Nc2ccc([N+](=O)[O-])cc2)c1-c1ccccc1)Nc1ccc(Cl)cc1
TGI (SK-MEL-5 melanoma): 22.3 µM
TGI (HOP-62 NSCLC): 42.7 µM
TGI (SN12C renal): > 100 µM
TGI (SF-295 CNS): > 100 µM
TGI (A549 NSCLC): 56.3 µM
TGI (K-562 leukemia): 17.8 µM
TGI (HCC-2998 colon): 91.4 µM
TGI (M14 melanoma): > 100 µM

CC(C)(C)c1cc(C(C)(C)C)c(SSc2c(C(C)(C)C)cc(C(C)(C)C)c(O)c2O)c(O)c1O
TGI (SK-MEL-5 melanoma): 24 µM
TGI (HCT-15 colon): 20.7 µM
TGI (T-47D breast): 27.2 µM
TGI (SN12C renal): 25.3 µM
TGI (PC-3 prostate): 28.5 µM
TGI (A549 NSCLC): 24 µM
TGI (MCF7 breast): 27.5 µM
TGI (NCI/ADR-RES ovarian): 70 µM
TGI (K-562 leukemia): 26.2 µM
TGI (MDA-N): 23.9 µM
TGI (M14 melanoma): 25.2 µM
